In ChEMBL document CHEMBL4330144, “A mitochondria-targeted organic arsenical accelerates mitochondrial metabolic disorder and function injury” (Bioorg Med Chem, 2019):
Active and inactive are the calls of the source. The calls are words filed in the database; no cut-off is given here.

Experiments:
[1] = tested on: MCF7; assay: Cytotoxicity against human MCF7 cells after 24 hrs by MTT assay; assay type: functional, cell-based; details: MCF7, 24 h
[2] = tested on: HEK293; assay: Cytotoxicity against HEK293 cells after 24 hrs by MTT assay; assay type: cell-based; details: Homo sapiens, HEK293, 24 h
[3] = tested on: SGC-7901; assay: Cytotoxicity against human SGC7901 cells after 48 hrs by MTT assay; assay type: functional, cell-based; details: SGC-7901, 48 h
[4] = tested on: NB-4; assay: Induction of mitochondrial membrane potential loss in human NB4 cells at 0.6 uM after 1 hr by JC1 staining based flow cytometry (reference value: 27.7%); assay type: functional
[5] = tested on: NB-4; assay: Induction of ROS generation in human NB4 cells at 0.6 uM after 1 to 6 hrs by DCFH-DA staining based flow cytometry; assay type: functional, cell-based
[6] = tested on: NB-4; assay: Cytotoxicity against human NB4 cells assessed as reduction in cell viability up to 2.4 uM up to 8 hrs by MTT assay; assay type: functional, cell-based
[7] = tested on: NB-4; assay: Cytotoxicity against human NB4 cells assessed as reduction in cell viability at 1.2 uM after 24 hrs in presence of PDHC-E2 co-enzyme LA by trypan blue assay; assay type: functional, cell-based
[8] = molecular target: T1, Dihydrolipoyllysine-residue acetyltransferase component of pyruvate dehydrogenase complex, mitochondrial (Homo sapiens) (UniProt P10515); assay: Inhibition of PDHC-E2 activity in human NB4 cells up to 2.4 uM after 3 hrs; assay type: cell-based
T1 sequence (whole entry): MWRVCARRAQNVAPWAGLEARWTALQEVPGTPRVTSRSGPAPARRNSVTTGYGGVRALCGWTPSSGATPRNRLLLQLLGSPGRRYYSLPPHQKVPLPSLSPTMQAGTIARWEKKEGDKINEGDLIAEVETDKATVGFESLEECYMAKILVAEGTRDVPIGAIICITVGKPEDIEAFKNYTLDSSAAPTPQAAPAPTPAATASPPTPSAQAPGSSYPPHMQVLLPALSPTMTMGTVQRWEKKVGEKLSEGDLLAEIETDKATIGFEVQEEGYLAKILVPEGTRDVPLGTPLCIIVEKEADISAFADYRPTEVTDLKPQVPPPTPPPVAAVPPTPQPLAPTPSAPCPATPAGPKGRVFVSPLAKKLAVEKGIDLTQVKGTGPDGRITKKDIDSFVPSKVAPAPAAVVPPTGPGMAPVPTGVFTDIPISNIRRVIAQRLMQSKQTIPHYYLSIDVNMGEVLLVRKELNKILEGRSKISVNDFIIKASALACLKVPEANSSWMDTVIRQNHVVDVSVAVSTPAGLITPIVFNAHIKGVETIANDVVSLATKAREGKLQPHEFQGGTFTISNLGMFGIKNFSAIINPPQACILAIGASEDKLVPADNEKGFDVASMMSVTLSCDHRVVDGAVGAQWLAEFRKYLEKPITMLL

[9] = tested on: NB-4; assay: Induction of mitochondrial membrane potential loss in human NB4 cells assessed as decrease in intracellular ATP level at 0.6 to 1.2 uM after 24 hrs; assay type: functional, cell-based
[10] = species on record: Rattus norvegicus; assay: Induction of mitochondrial membrane potential loss in isolated Wistar rat mitochondria assessed as activity recovery phase rate constant at 100 uM using pyruvate as substrate up to 3 hrs by microcalorimetry; assay type: functional
[11] = species on record: Rattus norvegicus; assay: Induction of mitochondrial membrane potential loss in isolated Wistar rat mitochondria assessed as stationary increase phase rate constant at 50 uM using pyruvate as substrate up to 3 hrs by microcalorimetry; assay type: functional
[12] = species on record: Rattus norvegicus; assay: Induction of mitochondrial membrane potential loss in isolated Wistar rat mitochondria assessed as stationary increase phase rate constant at 100 uM using pyruvate as substrate up to 3 hrs by microcalorimetry; assay type: functional
[13] = species on record: Rattus norvegicus; assay: Induction of mitochondrial membrane potential loss in isolated Wistar rat mitochondria assessed as decline phase rate constant at 25 uM using pyruvate as substrate up to 3 hrs by microcalorimetry (reference value: -24.13 to -20.47 10^-3/min); assay type: functional
[14] = species on record: Rattus norvegicus; assay: Induction of mitochondrial membrane potential loss in isolated Wistar rat mitochondria assessed as maximum power output at 50 uM using pyruvate as substrate up to 3 hrs by microcalorimetry; assay type: functional
[15] = species on record: Rattus norvegicus; assay: Induction of mitochondrial membrane potential loss in isolated Wistar rat mitochondria assessed as maximum power output time at 25 uM using pyruvate as substrate up to 3 hrs by microcalorimetry (reference value: 45.07 to 49.89 hrs); assay type: functional
[16] = species on record: Rattus norvegicus; assay: Induction of mitochondrial membrane potential loss in isolated Wistar rat mitochondria assessed as total heat output at 50 uM using pyruvate as substrate up to 3 hrs by microcalorimetry; assay type: functional
[17] = species on record: Rattus norvegicus; assay: Inhibition of ETC2 in isolated Wistar rat mitochondria assessed as decrease in DCPIP/DB reagent reduction at 5 to 50 uM incubated for 3 to 5 mins and measured for up to 3 mins
[18] = tested on: NB-4; assay: Induction of decrease in intracellular total thiols level in human NB4 cells up to 1.2 uM up to 24 hrs; assay type: functional, cell-based
[19] = tested on: NB-4; assay: Reduction in cell viability in human NB4 cells up to 1.6 uM up to 24 hrs by MTT assay; assay type: functional, cell-based
[20] = tested on: NB-4; assay: Reduction in cell viability in human NB4 cells up to 2.4 uM up to 24 hrs by MTT assay; assay type: functional, cell-based
[21] = species on record: Rattus norvegicus; assay: Induction of inner mitochondrial membrane permeabilization in isolated Wistar rat mitochondria assessed as K+ permeabilization at 5 to 75 uM measured for 10 to 30 mins; assay type: functional
[22] = tested on: NB-4; assay: Induction of apoptosis in human NB4 cells assessed as decrease in cell size at 0.6 to 1.2 uM after 24 hrs by Hoechst 33342/propidium iodide staining based confocal microscopic method; assay type: functional
[23] = tested on: NB-4; assay: Induction of apoptosis in human NB4 cells assessed as nuclear condensation at 0.6 to 1.2 uM after 24 hrs by Hoechst 33342/propidium iodide staining based confocal microscopic method; assay type: functional, cell-based
[24] = tested on: NB-4; assay: Induction of apoptosis in human NB4 cells assessed as DNA fragmentation at 0.6 to 1.2 uM after 24 hrs by Hoechst 33342/propidium iodide staining based confocal microscopic method; assay type: functional, cell-based
[25] = tested on: NB-4; assay: Induction of apoptosis in human NB4 cells assessed as live cells after 24 hrs by Annexin V-FITC/propidium iodide staining based flow cytometry (reference value: 92%); assay type: functional
[26] = tested on: NB-4; assay: Induction of apoptosis in human NB4 cells assessed as late apoptotic cells after 24 hrs by Annexin V-FITC/propidium iodide staining based flow cytometry (reference value: 2.9%); assay type: functional
[27] = tested on: NB-4; assay: Induction of apoptosis in human NB4 cells assessed as live cells after 24 hrs in presence of Nec-1 by Annexin V-FITC/propidium iodide staining based flow cytometry (reference value: 92%); assay type: functional
[28] = tested on: NB-4; assay: Induction of apoptosis in human NB4 cells assessed as early apoptotic cells after 24 hrs in presence of Nec-1 by Annexin V-FITC/propidium iodide staining based flow cytometry (reference value: 5%); assay type: functional
[29] = tested on: NB-4; assay: Induction of apoptosis in human NB4 cells assessed as late apoptotic cells after 24 hrs in presence of Nec-1 by Annexin V-FITC/propidium iodide staining based flow cytometry (reference value: 2.9%); assay type: functional
[30] = tested on: NB-4; assay: Induction of apoptosis in human NB4 cells assessed as necrotic cells after 24 hrs in presence of Nec-1 by Annexin V-FITC/propidium iodide staining based flow cytometry (reference value: 0.1%); assay type: functional

Question: What does the source list for `O=C(CC[P+](c1ccccc1)(c1ccccc1)c1ccccc1)Nc1ccc([As]2SCCCS2)cc1.[Cl-]`?
Answer: IC50 [1]: 4.44 µM; IC50 [2]: 4.63 µM; IC50 [3]: 0.99 µM; Activity [4]: 40.9%; Activity [5]: inactive; Activity [6]: inactive; Activity [7]: inactive; inhibition [8]: Active; Activity [9]: Active; K [10]: 3.88 ×10⁻³ /min; K [11]: 0.46 ×10⁻³ /min; K [12]: 0.41 ×10⁻³ /min; K [13]: -14.1 ×10⁻³ /min; Activity [14]: 107 W; TIME [15]: 45.4 h; Activity [16]: 10.2 J; inhibition [17]: inactive; Activity [18]: Active; Activity [19]: Active; Activity [20]: Active; Activity [21]: Active; Activity [22]: Active; Activity [23]: Active; Activity [24]: Active; Activity [25]: 69.3%; Activity [26]: 16.2%; Activity [27]: 71.2%; Activity [28]: 11.6%; Activity [29]: 16.2%; Activity [30]: 1%
